Measured values as given in patent US8497278B2, “Imidazo[1,2-a]pyridine compounds” (priority 2008, dated 2013).

Each molecule was assayed on central benzodiazepine receptors (assay: Central benzodiazepine receptor binding (test of Speth et al.)). Conditions: 1000 nM of the compound.
How it was run: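 Values are percent inhibition of central benzodiazepine receptor binding at 1000 nM compound (initial single-point screen at 1.0E-09, 1.0E-07 and 1.0E-05 M). Speth et al. binding test; nonspecific binding defined with excess unlabelled ligand and subtracted from total.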

| Structure (SMILES) | % Inhibition at 1000 nM for CBZD |
| --- | --- |
| Fc1cc(F)nc(NCc2c(-c3ccccc3)nc3ccc(Cl)cn23)n1 [Compound 168, N-((6-chloro-2-phenylimidazo[1,2-a]pyridin-3-yl)methyl)-4,6-difluoropyrimidin-2-amine] | ++ (percentage of inhibition of central BZD site binding is greater than 80% in the presence of 1000 nM of the compound) |
| CNC(=O)c1nc2ccccc2n1Cc1c(-c2ccc(Cl)cc2)nc2ccccn12 [Compound 36, 1-((2-(4-chlorophenyl)imidazo[1,2-a]pyridin-3-yl)methyl)-N-methyl-1H-benzo[d]imidazole-2-carboxamide] | + (percentage of inhibition of central BZD site binding is greater than 50% but less than 80% in the presence of 1000 nM of the compound) |
| O=c1[nH]c(Cc2c(-c3ccc(F)cc3)nc3ccc(F)cn23)no1 [Compound 236, 3-((6-fluoro-2-(4-fluorophenyl)imidazo[1,2-a]pyridin-3-yl)methyl)-1,2,4-oxadiazol-5(4H)-one] | ++ (percentage of inhibition of central BZD site binding is greater than 80% in the presence of 1000 nM of the compound) |
| CCOC(=O)c1cc(-c2ccco2)n(Cc2c(-c3ccc(Cl)cc3)nc3ccccn23)n1 [Compound 30, Ethyl 1-((2-(4-chlorophenyl)imidazo[1,2-a]pyridin-3-yl)methyl)-5-(furan-2-yl)-1H-pyrazole-3-carboxylate] | + (percentage of inhibition of central BZD site binding is greater than 50% but less than 80% in the presence of 1000 nM of the compound) |
| Cc1ccc(-c2nc3ccc(C)cn3c2CSc2nncs2)cc1 [Compound 180, 6-Methyl-3-([1,3,4]thiadiazol-2-ylsulfanylmethyl)-2-p-tolyl-imidazo[1,2-a]pyridine] | ++ (percentage of inhibition of central BZD site binding is greater than 80% in the presence of 1000 nM of the compound) |
| Cc1ccc(-c2nc3ccc(C)cn3c2CON2C(=O)c3ccccc3C2=O)cc1 [Compound 173, 2-((6-methyl-2-p-tolylH-imidazo[1,2-a]pyridin-3-yl)methoxy)isoindoline-1,3-dione] | ++ (percentage of inhibition of central BZD site binding is greater than 80% in the presence of 1000 nM of the compound) |
| Cc1ccc(-c2nc3ccc(C)cn3c2Cn2ccsc2=S)cc1 [Compound 131, 3-((6-Methyl-2-p-tolylH-imidazo[1,2-a]pyridin-3-yl)methyl)thiazole-2(3H)-thione] | ++ (percentage of inhibition of central BZD site binding is greater than 80% in the presence of 1000 nM of the compound) |
| Cc1ccc(-c2nc3ccc(C)cn3c2CNc2ncc[nH]2)cc1 [Compound 153, N-((6-methyl-2-p-tolyl-H-imidazo[1,2-a]pyridin-3-yl)methyl)-1H-imidazol-2-amine] | ++ (percentage of inhibition of central BZD site binding is greater than 80% in the presence of 1000 nM of the compound) |
| Cc1ccc(-c2nc3ccc(C)cn3c2CN2C(=O)OC(C)(C)C2=O)cc1 [Compound 101, 5,5-dimethyl-3-((6-methyl-2-p-tolylH-imidazo[1,2-a]pyridin-3-yl)methyl)oxazolidine-2,4-dione] | ++ (percentage of inhibition of central BZD site binding is greater than 80% in the presence of 1000 nM of the compound) |
| Cc1ccc(-c2nc3ccc(C)cn3c2Cn2c(C)nc3ccccc32)cc1 [Compound 14, 2-Methyl-1-((6-methyl-2-p-tolylH-imidazo[1,2-a]pyridin-3-yl)methyl)-1H-benzo[d]imidazole] | − (percentage of inhibition of central BZD site binding is less than 50% in the presence of 1000 nM of the compound) |
| Cc1ccc(-c2nc3ccc(C)cn3c2CSc2nc[nH]n2)cc1 [Compound 177, 6-Methyl-2-p-tolyl-3-(1H-[1,2,4]triazol-3-ylsulfanylmethyl)-imidazo[1,2-a]pyridine] | + (percentage of inhibition of central BZD site binding is greater than 50% but less than 80% in the presence of 1000 nM of the compound) |
| Cc1ccc(-c2nc3ccc(C)cn3c2Cn2cnc(Cl)c2Cl)cc1 [Compound 3, 3-((4,5-Dichloro-1H-imidazol-1-yl)methyl)-6-methyl-2-p-tolylH-imidazo[1,2-a]pyridine] | + (percentage of inhibition of central BZD site binding is greater than 50% but less than 80% in the presence of 1000 nM of the compound) |
| COC(=O)c1nn(Cc2c(-c3ccc(Cl)cc3)nc3ccccn23)c2ccccc12 [Compound 34, Methyl 1-((2-(4-chlorophenyl)imidazo[1,2-a]pyridin-3-yl)methyl)-1H-indazole-3-carboxylate] | + (percentage of inhibition of central BZD site binding is greater than 50% but less than 80% in the presence of 1000 nM of the compound) |
| Cc1ccc2nc(-c3ccc(F)cc3)c(CNc3nc(F)cc(F)n3)n2c1 [Compound 166, 4,6-difluoro-N-((2-(4-fluorophenyl)-6-methylimidazo[1,2-a]pyridin-3-yl)methyl)pyrimidin-2-amine] | ++ (percentage of inhibition of central BZD site binding is greater than 80% in the presence of 1000 nM of the compound) |
| Cc1cccn(Cc2c(-c3ccc(Cl)cc3)nc3ccc(Cl)cn23)c1=O [Compound 109, 1-((6-chloro-2-(4-chlorophenyl)H-imidazo[1,2-a]pyridin-3-yl)methyl)-3-methylpyridin-2(1H)-one] | ++ (percentage of inhibition of central BZD site binding is greater than 80% in the presence of 1000 nM of the compound) |
| Cc1ccc(-c2nc3ccc(C)cn3c2Cn2cccc(C)c2=O)cc1 [Compound 97, 3-methyl-1-((6-methyl-2-p-tolylH-imidazo[1,2-a]pyridin-3-yl)methyl)pyridin-2(1H)-one] | ++ (percentage of inhibition of central BZD site binding is greater than 80% in the presence of 1000 nM of the compound) |
| Cc1ccc(-c2nc3ccc(C)cn3c2Cn2ccnc2)cc1 [Compound 1, 3-((1H-imidazol-1-yl)methyl)-6-methyl-2-p-tolylimidazo[1,2-a]pyridine] | ++ (percentage of inhibition of central BZD site binding is greater than 80% in the presence of 1000 nM of the compound) |
| Cc1ccc(-c2nc3ccc(C)cn3c2CNn2cnnc2)cc1 [Compound 152, (6-methyl-2-p-tolylH-imidazo[1,2-a]pyridin-3-yl)-N-(4H-1,2,4-triazol-4-yl)methanamine] | + (percentage of inhibition of central BZD site binding is greater than 50% but less than 80% in the presence of 1000 nM of the compound) |
| O=c1ccccn1Cc1c(-c2ccc(Cl)cc2)nc2ccc(F)cn12 [Compound 122, 1-((2-(4-chlorophenyl)-6-fluoroimidazo[1,2-a]pyridin-3-yl)methyl)pyridin-2(1H)-one] | ++ (percentage of inhibition of central BZD site binding is greater than 80% in the presence of 1000 nM of the compound) |
| Cc1ccc(-c2nc3ccc(C)cn3c2Cn2ncnc2C(N)=O)cc1 [Compound 69, 2-(6-Methyl-2-p-tolyl-imidazo[1,2-a]pyridin-3-ylmethyl)-2H-[1,2,4]triazole-3-carboxylic acid amide] | ++ (percentage of inhibition of central BZD site binding is greater than 80% in the presence of 1000 nM of the compound) |
